For the experiment, the system named is H1.0K180me2 appearance in SR hADSCs. The experiment can be described thus: Western blot of H1.0K180me2 in hADSCs treated with bleomycin after rapamycin or everolimus pretreatment. It is filed as cell-based, human. The conditions noted are these: 500 nM pretreatment for 24 hours, then bleomycin 2 hours. The text has this:
Material for western blot analysis (cultured cells or tissue) was lysed in ice-cold RIPA lysis buffer (Thermo Scientific 89900) and sonicated using a Covaris S2 sonicator (10% duty cycle, Intensity 5, Bursts per minute 100, 120 seconds). Total protein concentration in each sample was quantified using Quick Start Bradford 1× Dye Reagent (BioRad, 5000205) following manufacturer's protocol. Samples were then mixed with NuPAGE LDS sample loading buffer (ThermoFisher, NP0007) and NuPAGE sample reducing buffer (ThermoFisher, NP0004), and heat denatured at 70° C. for 10 minutes. Proteins were separated on 4-12% precast polyacrylamide gels (ThermoFisher, NP0321) by electrophoresis and transferred to 0.45 μm nitrocellulose membrane. […] Proteins were detected with HRP secondary antibodies listed above for 1 hour at RT followed by ECL Western Blotting Substrate (ThermoFisher, 32106) using manufacturer's instructions. […]
To test if rapamycin derivatives can block H1.0K180me2 appearance upon DNA damage, SR hADSCs were treated with bleomycin for 2 hours with or without pretreatment with rapamycin or everolimus (a derivative of rapamycin) for 24 hours. Cells were then lysed and analyzed be western blot for H1.0K180me2, γH2A.X and β-Actin, according to methods described in Example 1.
A general note: In western blotting, separated proteins are transferred to a membrane and probed.

“Also recorded” adds a separate entry of the source.

For `CO[C@H]1C[C@@H]2CC[C@@H](C)[C@@](O)(O2)C(=O)C(=O)N2CCCC[C@H]2C(=O)O[C@H]([C@H](C)C[C@@H]2CC[C@@H](OCCO)[C@H](OC)C2)CC(=O)[C@H](C)/C=C(\C)[C@@H](O)[C@@H](OC)C(=O)[C@H](C)C[C@H](C)/C=C/C=C/C=C/1C` [everolimus], the “appearance of H1.0K180me2 upon bleomycin treatment” value is “blocks H1.0K180me2 deposition on chromatin; also recorded: blocks H1.0K180me2 appearance”.

The values are drawn from US10921324B2, “Compositions and methods related to the methylation of histone H1.0 protein” (Aelan Cell Technologies, Inc., priority 2016, dated 2021).
